Measurements published in patent publication EP2706123A1, “In vitro method for determining genotoxic and non-genotoxic carcinogenicity of a compound” (Rijksinstituut Voor Volksgezondheid En Milieu, priority 2012, dated 2014).
Where “and” joins values, the source holds several entries; their conditions need not be identical. Equal entries are not always repeated.

Tests used:
[1] = test system: Anks4b; assay: Expression level of marker gene Anks4b in liver of mice exposed for 7 days (microarray); conditions: mouse liver, 7 days exposure; for Average Fold Changes of the expression level of marker gene Anks4b: average of 3 - 4 independent repeat experiments, negative value = underexpression (negative inverse of Ratio), dose and route per compound in Table 8; for Fold Change of expression of Anks4b in individual animals: one animal per table line (suffix of Exposure label = animal number), negative value = underexpression
[2] = test system: 9030619P08Rik; assay: Expression level of marker gene 9030619P08Rik in liver of mice exposed for 7 days (microarray); conditions: mouse liver, 7 days exposure; for Average Fold Changes of the expression level of marker gene 9030619P08Rik: average of 3 - 4 independent repeat experiments, negative value = underexpression (negative inverse of Ratio), dose and route per compound in Table 8; for Fold Change of expression of 9030619P08Rik in individual animals: one animal per table line (suffix of Exposure label = animal number), negative value = underexpression
[3] = test system: Zbtb16; assay: Expression level of marker gene Zbtb16 in liver of mice exposed for 7 days (microarray); conditions: mouse liver, 7 days exposure; for Average Fold Changes of the expression level of marker gene Zbtb16: average of 3 - 4 independent repeat experiments, negative value = underexpression (negative inverse of Ratio), dose and route per compound in Table 8; for Fold Change of expression of Zbtb16 in individual animals: one animal per table line (suffix of Exposure label = animal number), negative value = underexpression
[4] = test system: Cyp17a1; assay: Expression level of marker gene Cyp17a1 in liver of mice exposed for 7 days (microarray); conditions: mouse liver, 7 days exposure; for Average Fold Changes of the expression level of marker gene Cyp17a1: average of 3 - 4 independent repeat experiments, negative value = underexpression (negative inverse of Ratio), dose and route per compound in Table 8; for Fold Change of expression of Cyp17a1 in individual animals: one animal per table line (suffix of Exposure label = animal number), negative value = underexpression
[5] = test system: Nup62; assay: Expression level of marker gene Nup62 in liver of mice exposed for 7 days (microarray); conditions: mouse liver, 7 days exposure; for Average Fold Changes of the expression level of marker gene Nup62: average of 3 - 4 independent repeat experiments, negative value = underexpression (negative inverse of Ratio), dose and route per compound in Table 8; for Fold Change of expression of Nup62 in individual animals: one animal per table line (suffix of Exposure label = animal number), negative value = underexpression
[6] = test system: LOC75771; assay: Expression level of marker gene LOC75771 in liver of mice exposed for 7 days (microarray); conditions: mouse liver, 7 days exposure; for Average Fold Changes of the expression level of marker gene LOC75771: average of 3 - 4 independent repeat experiments, negative value = underexpression (negative inverse of Ratio), dose and route per compound in Table 8; for Fold Change of expression of LOC75771 in individual animals: one animal per table line (suffix of Exposure label = animal number), negative value = underexpression

Row | SMILES | Average Fold Changes of the expression level of marker gene Anks4b [1] | Fold Change of expression of Anks4b in individual animals [1] | Average Fold Changes of the expression level of marker gene 9030619P08Rik [2] | Fold Change of expression of 9030619P08Rik in individual animals [2] | Average Fold Changes of the expression level of marker gene Zbtb16 [3] | Fold Change of expression of Zbtb16 in individual animals [3] | Average Fold Changes of the expression level of marker gene Cyp17a1 [4] | Fold Change of expression of Cyp17a1 in individual animals [4] | Average Fold Changes of the expression level of marker gene Nup62 [5] | Fold Change of expression of Nup62 in individual animals [5] | Average Fold Changes of the expression level of marker gene LOC75771 [6] | Fold Change of expression of LOC75771 in individual animals [6]
1 | CC(=O)Nc1ccc2c(c1)Cc1ccccc1-2 [GTXC_2-AAF, 2-Acetylaminofluorene] | 1,87 | 1,655817 and 2,059207 and 2,270806 and 1,587469 | 1,38 | 1,187438 and 1,340597 and 1,335409 and 1,684509 | -2,94 | -3,61818 and -2,77847 and -3,11926 and -2,3778 | -1,62 | 1,364397 and -2,15504 and -2,61584 and -1,66057 | -1,51 | -1,55724 and -1,69925 and -1,3329 and -1,46527 | 1,64 | 1,705921 and 2,011494 and 1,050507 and 1,984839
2 | c1ccc2c(c1)cc1ccc3cccc4ccc2c1c34 [GTXC_BaP, Benzo(a)pyrene] | 1,58 | 2,091694 and 1,512848 and 1,249576 and 1,590135 | 3,08 | 3,463285 and 3,508919 and 1,242329 and 5,940256 | -2,08 | -2,2075 and -2,73557 and -2,65608 and -1,1713 | 1,59 | 1,069143 and -1,57076 and 2,426957 and 3,849942 | -1,40 | -1,46302 and -1,51176 and -1,24257 and -1,41015 | 1,94 | 2,511058 and 2,153342 and 1,654892 and 1,573528
3 | N.N.[Cl][Pt][Cl] [GTXC_CPPD, Cisplatin] | 1,62 | 1,894611 and 1,416897 and 1,570269 | 1,70 | 1,882632 and 3,19679 and -1,23124 | -3,46 | -4,28606 and -2,61037 and -3,7119 | -2,48 | -4,49668 and -2,09626 and -1,61055 | -1,39 | -1,40437 and -1,37437 and -1,38035 | 1,98 | 2,205733 and 1,720149 and 2,049812
4 | CCOc1ccc(NC(C)=O)cc1 [GTXC_Phe, Phenacetin] |  | 1,592469 and 1,221871 and 1,552723 and 1,512243 |  | 2,591988 and 1,278319 and 1,436254 and 4,17095 |  | -4,26686 and -1,26966 and -2,10594 and -2,30082 | 1,82 | 1,929473 and -1,08575 and 2,976794 and 2,054986 |  | -1,46978 and -1,41748 and -1,3917 and -1,33382 |  | 1,462697 and 1,408953 and 1,858825 and 1,503018
5 | CC(C)(c1ccc(O)cc1)c1ccc(O)cc1 [NC_BPA, Bisphenol A] | -1,02 | -1,16229 and 1,285365 and -1,14224 and -1,06695 | 1,29 | -1,23514 and 2,605592 and 1,167664 and 1,121763 | -1,23 | 1,114306 and -1,6599 and 1,05274 and -1,63459 | -2,45 | -4,75677 and -1,01075 and -3,4994 and -2,12839 | -1,04 | -1,01361 and -1,00973 and 1,14385 and -1,3266 | 1,14 | 1,027932 and 1,306211 and -1,1049 and 1,370273
6 | CC(C)CCCCCCCOC(=O)c1ccccc1C(=O)OCCCCCCCC(C)C [NC_DIDP, Diisodecyl phthalate] | 1,17 | 1,254408 and -1,44863 and 1,229508 and 1,74936 | 1,19 | 1,367458 and -2,48269 and 1,316609 and 2,807593 | -1,37 | 1,045284 and -1,02838 and -1,15546 and -3,11558 | -1,22 | -1,67941 and 2,746697 and -2,01664 and -1,81914 | -1,03 | 1,082226 and -1,02869 and 1,206993 and -1,44589 | 1,26 | 1,468884 and 1,270453 and 1,155297 and 1,177232
7 | CCCCC(CC)COC(=O)c1ccccc1C(=O)OCC(CC)CCCC (stereo not shown) [NGTXC_DEHP, Di(2-ethylhexyl)phthalate] | -1,13 | -1,08 and -1,18919 and 1,270926 and -1,59617 | 3,11 | 1,421539 and 3,741746 and 4,049144 and 4,353386 | -1,19 | -1,41583 and 1,601817 and -2,52071 and 1,114567 | 2,49 | 6,253363 and 1,806164 and 1,292719 and 2,626167 | 1,03 | 1,166832 and 1,023361 and -1,1264 and 1,077398 | 1,12 | 1,152676 and 1,339443 and 1,013056 and 1,023425
8 | CC/C(=C(/CC)c1ccc(O)cc1)c1ccc(O)cc1 [NGTXC_DES, Diethylstillbestrol] | -1,02 | 1,020605 and 1,193296 and -1,09903 and -1,20697 | 8,00 | 3,399244 and 17,02687 and 10,00524 and 7,062258 | -1,15 | -1,72326 and 1,430939 and 1,400903 and -2,03597 | 10,74 | 9,417864 and 18,44632 and 6,256012 and 12,22566 | -1,07 | -1,56356 and 1,18178 and -1,04186 and 1,041463 | -1,06 | -1,13239 and -1,07708 and 1,027336 and -1,04436
9 | CCC1(c2ccccc2)C(=O)NC(=O)NC1=O [NGTXC_PBB, Phenobarbital] | 1,47 | 1,857325 and 1,468237 and 1,631778 and 1,048775 | 15,09 | 10,68519 and 17,28227 and 19,31769 and 14,53071 | -1,59 | -2,34418 and -1,15391 and -1,99396 and -1,17093 | 2,24 | 1,987088 and 1,966993 and 2,933095 and 2,191937 | 1,00 | -1,18737 and -1,21348 and 1,070337 and 1,356669 | 1,17 | 1,084573 and 1,085274 and 1,34375 and 1,18945
